Here are results for 16 molecules from US20250235543A1, “MODIFIED PROTEINS AND PROTEIN DEGRADERS” (Cullgen (Shanghai), Inc., priority 2021, published 2025).

Like-named read-outs stand apart in the source and are kept apart here. Some results are limits rather than exact numbers.

One assay has as its system cyclin D1. The assay can be described thus: Cyclin D1 percentage degradation in Calu-1 cells (immunoblotting). In kind it is cell-based. Particulars: 200 nM, 16 hours. Put shortly:
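Cells were rinsed once in cold PBS and lysed in cold RIPA buffer containing protease and phosphatase inhibitors, with gentle agitation at 4° C. for 30 min. Lysates were spun at 13,000 rpm for 10 min at 4° C., protein was measured by BCA, and samples were boiled in Laemmli buffer at 99° C. for 5 min before SDS-PAGE immunoblotting.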
Background: In western blotting, separated proteins are transferred to a membrane and probed.

Another assay addresses T1, CDK4 (Homo sapiens, UniProt P11802).
T1 construct: endogenous in cells; host or cells: Calu-1
Put plainly: CDK4 percentage degradation in Calu-1 cells (immunoblotting). In kind it is cell-based. The note with it: read-out: CDK4 Degradation (200 nM). The method in brief:
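Cultured cells were rinsed once in cold PBS and lysed in cold RIPA buffer containing protease and phosphatase inhibitors, with gentle agitation at 4° C. for 30 min. Lysates were centrifuged at 13,000 rpm for 10 min at 4° C., and protein was quantified by BCA. Samples were then separated by SDS-PAGE, detected with ECL, and the CDK4 bands quantified in Image Lab.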

T1 sequence (P11802 2-303 limits assumed): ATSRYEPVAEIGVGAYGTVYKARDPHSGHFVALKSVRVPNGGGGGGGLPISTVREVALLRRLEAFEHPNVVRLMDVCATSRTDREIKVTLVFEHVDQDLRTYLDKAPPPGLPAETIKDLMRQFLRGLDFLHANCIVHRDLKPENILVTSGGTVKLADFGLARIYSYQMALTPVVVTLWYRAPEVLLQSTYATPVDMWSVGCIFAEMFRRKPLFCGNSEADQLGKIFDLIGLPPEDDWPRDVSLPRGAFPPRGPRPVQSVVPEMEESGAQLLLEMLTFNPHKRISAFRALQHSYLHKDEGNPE
T1 sequence (P24385 whole entry partner): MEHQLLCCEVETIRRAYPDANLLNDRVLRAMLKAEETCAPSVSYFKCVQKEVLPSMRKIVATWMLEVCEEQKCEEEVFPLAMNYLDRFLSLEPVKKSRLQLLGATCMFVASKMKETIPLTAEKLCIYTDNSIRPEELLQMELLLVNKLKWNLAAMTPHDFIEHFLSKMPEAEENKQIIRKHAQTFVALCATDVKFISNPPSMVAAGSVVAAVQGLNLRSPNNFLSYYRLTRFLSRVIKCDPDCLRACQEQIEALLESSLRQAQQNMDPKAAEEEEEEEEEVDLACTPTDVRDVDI
T1 sequence (Q16531 2-1140 limits assumed, further chain): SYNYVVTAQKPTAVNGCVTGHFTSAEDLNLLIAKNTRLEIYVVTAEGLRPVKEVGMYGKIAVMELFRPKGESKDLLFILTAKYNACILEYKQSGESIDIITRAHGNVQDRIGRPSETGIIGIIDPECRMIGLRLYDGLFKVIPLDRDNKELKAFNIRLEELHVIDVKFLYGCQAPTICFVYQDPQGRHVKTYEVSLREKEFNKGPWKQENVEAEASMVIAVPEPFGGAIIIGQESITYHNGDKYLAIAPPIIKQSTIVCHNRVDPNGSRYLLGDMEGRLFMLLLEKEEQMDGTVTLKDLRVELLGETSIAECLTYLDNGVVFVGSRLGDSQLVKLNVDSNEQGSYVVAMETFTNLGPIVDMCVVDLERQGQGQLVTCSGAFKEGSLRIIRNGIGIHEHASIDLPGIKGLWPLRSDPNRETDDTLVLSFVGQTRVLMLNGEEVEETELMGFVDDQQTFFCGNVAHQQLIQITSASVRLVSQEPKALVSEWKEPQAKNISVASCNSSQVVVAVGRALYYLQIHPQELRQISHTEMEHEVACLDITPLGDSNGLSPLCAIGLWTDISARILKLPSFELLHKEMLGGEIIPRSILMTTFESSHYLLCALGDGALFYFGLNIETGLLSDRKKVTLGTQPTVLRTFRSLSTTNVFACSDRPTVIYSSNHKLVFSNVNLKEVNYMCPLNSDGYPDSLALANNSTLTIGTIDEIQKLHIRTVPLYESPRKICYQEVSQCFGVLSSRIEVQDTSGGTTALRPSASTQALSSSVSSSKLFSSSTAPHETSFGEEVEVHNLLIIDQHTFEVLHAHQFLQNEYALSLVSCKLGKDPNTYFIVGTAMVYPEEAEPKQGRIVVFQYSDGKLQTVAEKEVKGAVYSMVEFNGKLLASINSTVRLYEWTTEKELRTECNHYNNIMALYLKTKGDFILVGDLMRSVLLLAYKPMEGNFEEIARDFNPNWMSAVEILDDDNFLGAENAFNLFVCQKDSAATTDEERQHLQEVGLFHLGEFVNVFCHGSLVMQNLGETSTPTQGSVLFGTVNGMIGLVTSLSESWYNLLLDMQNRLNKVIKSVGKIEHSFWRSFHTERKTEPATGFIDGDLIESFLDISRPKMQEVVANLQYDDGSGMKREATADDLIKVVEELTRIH

With `CC(=O)c1c(C)c2cnc(Nc3ccc(N4CCN(CC(=O)NCCOCCOCCC(=O)Nc5ccccc5CNc5nc(C)c(C)s5)CC4)cn3)nc2n(C2CCCC2)c1=O` [CPD-154, 3-(2-(2-(2-(4-(6-((6-Acetyl-8-cyclopentyl-5-methyl-7-oxo-7,8-dihydropyrido[2,3-d]pyrimidin-2-yl)amino)pyridin-3-yl)piperazin-1-yl)acetamido)ethoxy)ethoxy)-N-(2-(((4,5-dimethylthiazol-2-yl)amino)methyl)phenyl)propanamide], the “CyclinD1 Degradation (200 nM)” value in the assay on cyclin D1 is reported as “D (protein percentage degradation <30%)”. Further, the inhibition at 0.2 µM at CDK4 (Calu-1 cells, 200 nM, 16 hours) is below 30%.
As for `CC(=O)c1c(C)c2cnc(Nc3ccc(N4CCN(CC(=O)NCCOCCOCCC(=O)Nc5cc(N(C)C)ccc5C(=O)Nc5nc(C)c(C)s5)CC4)cn3)nc2n(C2CCCC2)c1=O` [CPD-155, 2-(3-(2-(2-(2-(4-(6-((6-Acetyl-8-cyclopentyl-5-methyl-7-oxo-7,8-dihydropyrido[2,3-d]pyrimidin-2-yl)amino)pyridin-3-yl)piperazin-1-yl)acetamido)ethoxy)ethoxy)propanamido)-4-(dimethylamino)-N-(4,5-dimethylthiazol-2-yl)benzamide], the “CyclinD1 Degradation (200 nM)” value in the assay on cyclin D1 is reported as “A (protein percentage degradation >=80%)”. For the same molecule, the inhibition at 0.2 µM at CDK4 (Calu-1 cells, 200 nM, 16 hours) is 50 to 80%.
`CC(=O)c1c(C)c2cnc(Nc3ccc(N4CCN(C(=O)CCCCC(=O)Nc5ccccc5C(=O)Nc5nc(C)c(C)s5)CC4)cn3)nc2n(C2CCCC2)c1=O` [CPD-156, 2-(6-(4-(6-((6-Acetyl-8-cyclopentyl-5-methyl-7-oxo-7,8-dihydropyrido[2,3-d]pyrimidin-2-yl)amino)pyridin-3-yl)piperazin-1-yl)-6-oxohexanamido)-N-(4,5-dimethylthiazol-2-yl)benzamide]: the “CyclinD1 Degradation (200 nM)” value with cyclin D1 is listed as “D (protein percentage degradation <30%)”. Further, the inhibition at 0.2 µM on CDK4 (Calu-1, 16 h) is below 30%.
`CC(=O)c1c(C)c2cnc(Nc3ccc(N4CCN(C(=O)CCCCCC(=O)Nc5ccccc5C(=O)Nc5nc(C)c(C)s5)CC4)cn3)nc2n(C2CCCC2)c1=O` [CPD-157, 2-(7-(4-(6-((6-Acetyl-8-cyclopentyl-5-methyl-7-oxo-7,8-dihydropyrido[2,3-d]pyrimidin-2-yl)amino)pyridin-3-yl)piperazin-1-yl)-7-oxoheptanamido)-N-(4,5-dimethylthiazol-2-yl)benzamide]: the “CyclinD1 Degradation (200 nM)” value in the assay with cyclin D1 was “D (protein percentage degradation <30%)”. Moreover, on CDK4 (Calu-1, 16 h), the inhibition at 0.2 µM was below 30%.
Turning to `CC(=O)c1c(C)c2cnc(Nc3ccc(N4CCN(C(=O)CC(=O)Nc5ccccc5C(=O)Nc5nc(C)c(C)s5)CC4)cn3)nc2n(C2CCCC2)c1=O` [CPD-158, 2-(3-(4-(6-((6-Acetyl-8-cyclopentyl-5-methyl-7-oxo-7,8-dihydropyrido[2,3-d]pyrimidin-2-yl)amino)pyridin-3-yl)piperazin-1-yl)-3-oxopropanamido)-N-(4,5-dimethylthiazol-2-yl)benzamide], the “CyclinD1 Degradation (200 nM)” value with cyclin D1 is recorded as “D (protein percentage degradation <30%)”. Besides, at CDK4 (Calu-1, 16 h), the inhibition at 0.2 µM was below 30%.
With `CC(=O)c1c(C)c2cnc(Nc3ccc(N4CCN(C(=O)CCCC(=O)Nc5ccccc5C(=O)Nc5nc(C)c(C)s5)CC4)cn3)nc2n(C2CCCC2)c1=O` [CPD-159, 2-(5-(4-(6-((6-Acetyl-8-cyclopentyl-5-methyl-7-oxo-7,8-dihydropyrido[2,3-d]pyrimidin-2-yl)amino)pyridin-3-yl)piperazin-1-yl)-5-oxopentanamido)-N-(4,5-dimethylthiazol-2-yl)benzamide], the “CyclinD1 Degradation (200 nM)” value with cyclin D1 is given as “D (protein percentage degradation <30%)”. Further, the inhibition at 0.2 µM at CDK4 (Calu-1, 16 h) was 30 to 50%.
For `CC(=O)c1c(C)c2cnc(Nc3ccc(N4CCN(C(=O)CCCCCCCC(=O)Nc5ccccc5C(=O)Nc5nc(C)c(C)s5)CC4)cn3)nc2n(C2CCCC2)c1=O` [CPD-160, 2-(9-(4-(6-((6-Acetyl-8-cyclopentyl-5-methyl-7-oxo-7,8-dihydropyrido[2,3-d]pyrimidin-2-yl)amino)pyridin-3-yl)piperazin-1-yl)-9-oxononanamido)-N-(4,5-dimethylthiazol-2-yl)benzamide], in the assay with cyclin D1, the “CyclinD1 Degradation (200 nM)” value was “C (protein percentage degradation <50%, and >=30%)”. The inhibition at 0.2 µM at CDK4 (Calu-1, 16 h) lay in the range of 50 to 80%.
In the case of `CC(=O)c1c(C)c2cnc(Nc3ccc(N4CCN(C(=O)CCCCCCC(=O)Nc5ccccc5C(=O)Nc5nc(C)c(C)s5)CC4)cn3)nc2n(C2CCCC2)c1=O` [CPD-161, 2-(8-(4-(6-((6-Acetyl-8-cyclopentyl-5-methyl-7-oxo-7,8-dihydropyrido[2,3-d]pyrimidin-2-yl)amino)pyridin-3-yl)piperazin-1-yl)-8-oxooctanamido)-N-(4,5-dimethylthiazol-2-yl)benzamide], the “CyclinD1 Degradation (200 nM)” value in the assay with cyclin D1 is “D (protein percentage degradation <30%)”. Besides, the inhibition at 0.2 µM at CDK4 (Calu-1, 16 h) was below 30%.
Regarding `CC(=O)c1c(C)c2cnc(Nc3ccc(N4CCN(C(=O)CCCCCCCCC(=O)Nc5ccccc5C(=O)Nc5nc(C)c(C)s5)CC4)cn3)nc2n(C2CCCC2)c1=O` [CPD-162, 2-(10-(4-(6-((6-Acetyl-8-cyclopentyl-5-methyl-7-oxo-7,8-dihydropyrido[2,3-d]pyrimidin-2-yl)amino)pyridin-3-yl)piperazin-1-yl)-10-oxodecanamido)-N-(4,5-dimethylthiazol-2-yl)benzamide], the “CyclinD1 Degradation (200 nM)” value in the assay on cyclin D1 was “C (protein percentage degradation <50%, and >=30%)”. Also, the inhibition at 0.2 µM at CDK4 (Calu-1, 16 h) is below 30%.
`CC(=O)c1c(C)c2cnc(Nc3ccc(N4CCN(C(=O)CCOCCOCCOCCOCCOCCC(=O)Nc5ccccc5C(=O)Nc5nc(C)c(C)s5)CC4)cn3)nc2n(C2CCCC2)c1=O` [CPD-163, 19-(4-(6-((6-Acetyl-8-cyclopentyl-5-methyl-7-oxo-7,8-dihydropyrido[2,3-d]pyrimidin-2-yl)amino)pyridin-3-yl)piperazin-1-yl)-N-(2-((4,5-dimethylthiazol-2-yl)carbamoyl)phenyl)-19-oxo-4,7,10,13,16-pentaoxanonadecanamide]: the “CyclinD1 Degradation (200 nM)” value in the assay on cyclin D1 is listed as “A (protein percentage degradation >=80%)”. The inhibition at 0.2 µM on CDK4 (Calu-1, 16 h) is 50 to 80%.
Take `CNc1ccc(C(=O)Nc2nc(C)c(C)s2)c(NC(=O)CCOCCOCCNC(=O)CN2CCN(c3ccc(Nc4ncc5c(C)c(C(C)=O)c(=O)n(C6CCCC6)c5n4)nc3)CC2)c1` [CPD-164, 2-(3-(2-(2-(2-(4-(6-((6-Acetyl-8-cyclopentyl-5-methyl-7-oxo-7,8-dihydropyrido[2,3-d]pyrimidin-2-yl)amino)pyridin-3-yl)piperazin-1-yl)acetamido)ethoxy)ethoxy)propanamido)-N-(4,5-dimethylthiazol-2-yl)-4-(methylamino)benzamide]: the “CyclinD1 Degradation (200 nM)” value with cyclin D1 was “A (protein percentage degradation >=80%)”. The inhibition at 0.2 µM at CDK4 (Calu-1 cells, 200 nM, 16 hours) lay within 50 to 80%.
Regarding `CC(=O)c1c(C)c2cnc(Nc3ccc(N4CCN(C(=O)CCCNc5ccc(C)c(C(=O)Nc6nc(C)c(C)s6)c5)CC4)cn3)nc2n(C2CCCC2)c1=O` [CPD-165, 5-((4-(4-(6-((6-Acetyl-8-cyclopentyl-5-methyl-7-oxo-7,8-dihydropyrido[2,3-d]pyrimidin-2-yl)amino)pyridin-3-yl)piperazin-1-yl)-4-oxobutyl)amino)-N-(4,5-dimethylthiazol-2-yl)-2-methylbenzamide], the “CyclinD1 Degradation (200 nM)” value in the assay with cyclin D1 is “D (protein percentage degradation <30%)”. Besides, on CDK4 (Calu-1, 16 h), the inhibition at 0.2 µM is below 30%.
In the case of `CC(=O)c1c(C)c2cnc(Nc3ccc(N4CCN(CC(=O)NCCOCCOCCOCCOCCOCCNc5ccc(CNc6nc(C)c(C)s6)c(C)c5)CC4)cn3)nc2n(C2CCCC2)c1=O` [CPD-166, 2-(4-(6-((6-Acetyl-8-cyclopentyl-5-methyl-7-oxo-7,8-dihydropyrido[2,3-d]pyrimidin-2-yl)amino)pyridin-3-yl)piperazin-1-yl)-N-(17-((4-(((4,5-dimethylthiazol-2-yl)amino)methyl)-3-methylphenyl)amino)-3,6,9,12,15-pentaoxaheptadecyl)acetamide], in the assay on cyclin D1, the “CyclinD1 Degradation (200 nM)” value was “B (protein percentage degradation <80%, and >=50%)”. Also, the inhibition at 0.2 µM at CDK4 (Calu-1 cells, 200 nM, 16 hours) is 30 to 50%.
Turning to `CCCCNc1ccc(C(=O)Nc2nc(C)c(C)s2)c(NC(=O)CCOCCOCCNC(=O)CN2CCN(c3ccc(Nc4ncc5c(C)c(C(C)=O)c(=O)n(C6CCCC6)c5n4)nc3)CC2)c1` [CPD-168, 2-(3-(2-(2-(2-(4-(6-((6-Acetyl-8-cyclopentyl-5-methyl-7-oxo-7,8-dihydropyrido[2,3-d]pyrimidin-2-yl)amino)pyridin-3-yl)piperazin-1-yl)acetamido)ethoxy)ethoxy)propanamido)-4-(butylamino)-N-(4,5-dimethylthiazol-2-yl)benzamide], the “CyclinD1 Degradation (200 nM)” value in the assay on cyclin D1 is “A (protein percentage degradation >=80%)”. In addition, the inhibition at 0.2 µM at CDK4 (Calu-1 cells, 200 nM, 16 hours) fell in the range of 50 to 80%.
`CC(=O)c1c(C)c2cnc(Nc3ccc(N4CCN(CC(=O)NCCCCCCC(=O)Nc5ccccc5C(=O)Nc5nc(C)c(C)s5)CC4)cn3)nc2n(C2CCCC2)c1=O` [CPD-169, 2-(7-(2-(4-(6-((6-Acetyl-8-cyclopentyl-5-methyl-7-oxo-7,8-dihydropyrido[2,3-d]pyrimidin-2-yl)amino)pyridin-3-yl)piperazin-1-yl)acetamido)heptanamido)-N-(4,5-dimethylthiazol-2-yl)benzamide]: the “CyclinD1 Degradation (200 nM)” value in the assay with cyclin D1 was “D (protein percentage degradation <30%)”. Besides, the inhibition at 0.2 µM on CDK4 (Calu-1 cells, 200 nM, 16 hours) was below 30%.
For `CC(=O)c1c(C)c2cnc(Nc3ccc(N4CCN(CC(=O)NCCOCCOCCOCCOCCC(=O)Nc5ccccc5C(=O)Nc5nc(C)c(C)s5)CC4)cn3)nc2n(C2CCCC2)c1=O` [CPD-170, 2-(1-(4-(6-((6-Acetyl-8-cyclopentyl-5-methyl-7-oxo-7,8-dihydropyrido[2,3-d]pyrimidin-2-yl)amino)pyridin-3-yl)piperazin-1-yl)-2-oxo-6,9,12,15-tetraoxa-3-azaoctadecan-18-amido)-N-(4,5-dimethylthiazol-2-yl)benzamide], in that order: “A (protein percentage degradation >=80%)” and 50 to 80%.
